# Test results: PubChem BioAssay (NCI)
#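 Where inhibition never reached the appropriate level, the endpoint shown equals the highest concentration tested. Otherwise, values were interpolated linearly from a five-concentration, 48-hour dose response in 96-well plates. Here, GI50 denotes the concentration required for 50% inhibition of growth. Definition used: TGI = concentration required for complete inhibition of growth.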
# Tests used:
# Assay in all cases: NCI tumour cell line growth inhibition, 48 h
# [1] = system: UACC-257 melanoma
# [2] = system: HCT-15 colon
# [3] = system: MCF7 breast
# [4] = system: NCI-H522 lung
# [5] = system: HCT-116 colon
# [6] = system: RPMI-8226 leukemia
# [7] = system: MDA-MB-435
# [8] = system: OVCAR-4 ovarian
# [9] = system: OVCAR-3 ovarian
# [10] = system: HCC-2998 colon
# [11] = system: K-562 leukemia
# [12] = system: HT29 colon
# [13] = system: T-47D breast
# [14] = system: UO-31 renal
# [15] = system: A498 renal
# [16] = system: NCI-H460 lung
# [17] = system: PC-3 prostate
# [18] = system: SF-268 CNS
# [19] = system: DU-145 prostate
# [20] = system: NCI/ADR-RES ovarian
# [21] = system: SK-MEL-5 melanoma
# [22] = system: KM12 colon
# [23] = system: SF-295 CNS
# [24] = system: HOP-92 NSCLC
# [25] = system: OVCAR-8 ovarian
# [26] = system: SK-OV-3 ovarian
# [27] = system: SN12C renal
# [28] = system: BT-549 breast
# [29] = system: HL-60(TB) leukemia
# [30] = system: SW-620 colon
# [31] = system: SF-539 CNS
# [32] = system: EKVX NSCLC
# [33] = system: CCRF-CEM leukemia
# [34] = system: COLO 205 colon
# [35] = system: UACC-62 melanoma
# [36] = system: CAKI-1 renal
# [37] = system: HS 578T breast
# [38] = system: HOP-62 NSCLC
# [39] = system: MOLT-4 leukemia
# [40] = system: SNB-75 CNS
# [41] = system: SK-MEL-28 melanoma
# [42] = system: U251 CNS
# [43] = system: RXF 393 renal
# [44] = system: SR leukemia
# [45] = system: NCI-H23 lung
# [46] = system: OVCAR-5 ovarian
# [47] = system: SK-MEL-2 melanoma
# [48] = system: SNB-19 CNS
# [49] = system: M14 melanoma
# [50] = system: 786-0 renal
# [51] = system: ACHN renal
# [52] = system: A549 NSCLC
# [53] = system: TK-10 renal
# [54] = system: NCI-H226 lung
# [55] = system: MDA-MB-231 breast
smiles,measurement,setting,value
Cc1[nH]c2ccccc2c1CO,GI50,[1],24.1 µM
same,TGI,[1],60.2 µM
same,GI50,[2],18.5 µM
same,TGI,[2],93.2 µM
same,GI50,[3],21.3 µM
same,TGI,[3],51.5 µM
same,GI50,[4],12.8 µM
same,TGI,[4],28.9 µM
same,GI50,[5],15.2 µM
same,TGI,[5],28.5 µM
same,GI50,[6],26.9 µM
same,TGI,[6],> 100 µM
same,GI50,[7],16.8 µM
same,TGI,[7],36.6 µM
same,GI50,[8],21.4 µM
same,TGI,[8],82.6 µM
same,GI50,[9],5.54 µM
same,TGI,[9],19.6 µM
same,GI50,[10],21.2 µM
same,TGI,[10],47.2 µM
same,GI50,[11],18.6 µM
same,TGI,[11],61.4 µM
same,GI50,[12],15.9 µM
same,TGI,[12],34.7 µM
same,GI50,[13],29.3 µM
same,TGI,[13],> 100 µM
same,GI50,[14],10.9 µM
same,TGI,[14],31.7 µM
same,GI50,[15],17.2 µM
same,TGI,[15],56.2 µM
same,GI50,[16],16.9 µM
same,TGI,[16],31.6 µM
same,GI50,[17],17 µM
same,TGI,[17],43.7 µM
same,GI50,[18],10.2 µM
same,TGI,[18],22.9 µM
same,GI50,[19],0.0457 µM
same,TGI,[19],18.1 µM
same,GI50,[20],19.5 µM
same,TGI,[20],60.3 µM
same,GI50,[21],18.1 µM
same,TGI,[21],36.9 µM
same,GI50,[22],4.84 µM
same,TGI,[22],19.4 µM
same,GI50,[23],22.5 µM
same,TGI,[23],44.7 µM
same,GI50,[24],14.6 µM
same,TGI,[24],40.9 µM
same,GI50,[25],31 µM
same,TGI,[25],> 100 µM
same,GI50,[26],35.1 µM
same,TGI,[26],> 100 µM
same,GI50,[27],15.8 µM
same,TGI,[27],32.1 µM
same,GI50,[28],18.4 µM
same,TGI,[28],40.3 µM
same,GI50,[29],15.8 µM
same,TGI,[29],39 µM
same,GI50,[30],15.1 µM
same,TGI,[30],28.4 µM
same,GI50,[31],18.8 µM
same,TGI,[31],39.9 µM
same,GI50,[32],20.9 µM
same,TGI,[32],70.7 µM
same,GI50,[33],32.8 µM
same,TGI,[33],> 100 µM
same,GI50,[34],14.2 µM
same,TGI,[34],27.3 µM
same,GI50,[35],17.2 µM
same,TGI,[35],37.4 µM
same,GI50,[36],14.9 µM
same,TGI,[36],42.2 µM
same,GI50,[37],15.6 µM
same,TGI,[37],44 µM
same,GI50,[38],28.1 µM
same,TGI,[38],> 100 µM
same,GI50,[39],25.1 µM
same,TGI,[39],91.6 µM
same,GI50,[40],7.33 µM
same,TGI,[40],39.3 µM
same,GI50,[41],16.6 µM
same,TGI,[41],34.3 µM
same,GI50,[42],21.2 µM
same,TGI,[42],43.9 µM
same,GI50,[43],20.2 µM
same,TGI,[43],47.6 µM
same,GI50,[44],25.1 µM
same,TGI,[44],> 100 µM
same,GI50,[45],18.6 µM
same,TGI,[45],46 µM
same,GI50,[46],24.4 µM
same,TGI,[46],96.9 µM
same,GI50,[47],16.7 µM
same,TGI,[47],36.6 µM
same,GI50,[48],39.3 µM
same,TGI,[48],> 100 µM
same,GI50,[49],16.4 µM
same,TGI,[49],34.9 µM
same,GI50,[50],24.5 µM
same,TGI,[50],64.8 µM
same,GI50,[51],22.8 µM
same,TGI,[51],88.8 µM
same,GI50,[52],38.3 µM
same,TGI,[52],> 100 µM
same,GI50,[53],21 µM
same,TGI,[53],67.1 µM
same,GI50,[54],25.8 µM
same,TGI,[54],93.9 µM
same,GI50,[55],18.1 µM
same,TGI,[55],54.7 µM
